Measurements reported in US7943551B2, “3-cyclopropyl-4-(3-thiobenzoyl) pyrazoles and their use as herbicides” (Bayer Cropscience AG, priority 2007, dated 2011).

Assays:
Format in all cases: in vivo
[1] = tested on: Stellaria media; assay: Pre-emergence herbicidal action; settings: 80 g of a.i./ha
Text: (§1) Seeds or rhizome pieces of mono- and dicotyledonous harmful plants are placed in sandy loam in pots of a diameter of 9 to 13 cm and covered with soil. The herbicides, formulated as emulsifiable concentrates or dusts, are applied to the surface of the covering soil in the form of aqueous dispersions or suspensions or emulsions at an application rate of 300 to 800 l of water/ha (converted), […] For further cultivation of the plants, the pots are then kept in a greenhouse under optimum conditions. The visual scoring of the damage to the harmful plants is carried out 3-4 weeks after the treatment. Here, the compounds of Nos. 1-3, 1-15, 1-44 and 1-1407 show an activity of at least 90% against Echinochloa crus galli. The compounds of Nos. 1-15, 1-45, 1-1407 and 1-1419 show an activity of at least 90% against Abutilon theophrasti. The compounds of Nos. 1-3, 1-45, 1-1406 and 1-1418 show an activity of at least 90% against Amaranthus retroflexus. The compounds of Nos. 1-44, 1-1406, 1-1407 and 1-1419 show an activity of at least 90% against Stellaria media.
(§2) The comparative tests of Tables 1 to 24 below show the superiority of the compounds according to the invention over the compounds known from the prior art.
(§3) • ABUTH Abutilon theophrasti ALOMY Alopecurus myosuroides • AMARE Amaranthus retroflexus AVEFA Avena fatua • CHEAL Chenopodium album ECHCG Echinochloa crus galli • GALAP Galium aparine LOLMU Lolium multiflorum • MATIN Matricaria inodora PHBPU Pharbitis purpureum • POLCO Fallopia convolvulus STEME Stellaria media • VERPE Veronica persica VIOTR Viola tricolor • XANST Xanthium strumarium Crop Plants • GLXMA Glycine max (soybeans) TRZAS Triticum aestivum (wheat) • ZEAMX Zea mays (corn)

[2] = tested on: Veronica persica; assay: Pre-emergence herbicidal action; settings: 80 g of a.i./ha
Text: as §1, §2, §3

[3] = tested on: Matricaria inodora; assay: Pre-emergence herbicidal action; settings: Tripleurospermum inodorum, read-out: Herbicidal activity in % against MATIN; for pest or weed control at 80 g/ha: 80 g of a.i./ha; for pest or weed control at 320 g/ha: 320 g of a.i./ha
Text: (§4) Seeds or rhizome pieces of mono- and dicotyledonous harmful plants are placed in sandy loam in pots of a diameter of 9 to 13 cm and covered with soil. The herbicides, formulated as emulsifiable concentrates or dusts, are applied to the surface of the covering soil in the form of aqueous dispersions or suspensions or emulsions at an application rate of 300 to 800 l of water/ha (converted), at a dosage of 320 grams per hectare. For further cultivation of the plants, the pots are then kept in a greenhouse under optimum conditions. The visual scoring of the damage to the harmful plants is carried out 3-4 weeks after the treatment. Here, the compounds of Nos. 1-3, 1-15, 1-44 and 1-1407 show an activity of at least 90% against Echinochloa crus galli. The compounds of Nos. 1-15, 1-45, 1-1407 and 1-1419 show an activity of at least 90% against Abutilon theophrasti. The compounds of Nos. 1-3, 1-45, 1-1406 and 1-1418 show an activity of at least 90% against Amaranthus retroflexus. The compounds of Nos. 1-44, 1-1406, 1-1407 and 1-1419 show an activity of at least 90% against Stellaria media.
as §2, §3

[4] = tested on: Amaranthus retroflexus; assay: Pre-emergence herbicidal action
Text: as §1, §2, §3

[5] = tested on: Matricaria inodora; assay: Post-emergence herbicidal action; settings: Tripleurospermum inodorum, 80 g of a.i./ha, read-out: Herbicidal activity in % against MATIN
Description: (§5) Seeds of mono- and dicotyledonous harmful plants are placed in sandy loam in cardboard pots, covered with soil and grown in the greenhouse under good growth conditions. Two to three weeks after sowing, the test plants are treated at the three-leaf stage. The compounds according to the invention, which are formulated as wettable powders or as emulsion concentrates, are sprayed at an application rate of 600 to 800 l of water/ha (converted) in a dosage of 80 grams per hectare onto the surface of the green plant parts. The visual scoring of the damage to the harmful plants is carried out 3-4 weeks after the treatment. Here, the compounds of Nos. 1-39, 1-40, 1-1382 and 1-2091 show an activity of at least 90% against Echinochloa crus galli. The compounds of Nos. 1-3, 1-44 and 1-2091 shown an activity of at least 90% against Abutilon theophrasti. The compounds of Nos. 1-39, 1-40 and 1-1382 show an activity of at least 90% against Veronica persica. The compounds of Nos. 1-3, 1-38, 1-39, 1-1406 and 1-1407 show an activity of at least 90% against Stellaria media.
as §2, §3

[6] = tested on: Stellaria media; assay: Post-emergence herbicidal action; settings: Stellaria media, 80 g of a.i./ha, visual scoring 3-4 weeks after treatment, read-out: Herbicidal activity in % against STEME
Description: as §5, §2, §3

[7] = tested on: Veronica persica; assay: Post-emergence herbicidal action; settings: 80 g of a.i./ha, visual scoring 3-4 weeks after treatment, read-out: Herbicidal activity in % against VERPE
Description: as §5, §2, §3

[8] = tested on: Xanthium strumarium; assay: Post-emergence herbicidal action; settings: 80 g of a.i./ha, read-out: Herbicidal activity in % against XANST
Description: as §5, §2, §3

[9] = tested on: Galium aparine; assay: Post-emergence herbicidal action; settings: 80 g of a.i./ha
Description: as §5, with “The compounds according to the invention, which are formulated as wettable powders or as emulsion concentrates, are sprayed at an application rate of 600 to 800 l of water/ha (converted) in a dosage of 80 grams per hectare onto the surface of the green plant parts.” left out
as §2, §3

[10] = tested on: Fallopia convolvulus; assay: Pre-emergence herbicidal action; settings: 320 g of a.i./ha
Text: as §4, §2, §3

[11] = tested on: Pharbitis purpureum; assay: Pre-emergence herbicidal action; settings: 320 g of a.i./ha
Text: as §4, §2, §3

[12] = tested on: Xanthium strumarium; assay: Pre-emergence herbicidal action; settings: 320 g of a.i./ha
Text: as §4, §2, §3

[13] = tested on: Viola tricolor; assay: Pre-emergence herbicidal action
Text: as §1, §2, §3

[14] = tested on: Abutilon theophrasti; assay: Pre-emergence herbicidal action; settings: 320 g of a.i./ha, visual scoring 3-4 weeks after treatment
Text: as §4, §2, §3

[15] = tested on: Fallopia convolvulus; assay: Post-emergence herbicidal action; settings: 80 g of a.i./ha
Description: as §5, §2, §3

[16] = tested on: Pharbitis purpureum; assay: Post-emergence herbicidal action; settings: 80 g of a.i./ha
Description: as §5, §2, §3

[17] = tested on: Viola tricolor; assay: Post-emergence herbicidal action; settings: 80 g of a.i./ha, read-out: Herbicidal activity in % against VIOTR
Description: as §5, §2, §3

[18] = tested on: Triticum aestivum (wheat); assay: Post-emergence damage of crop plants; settings: 80 g of a.i./ha, crop plant wheat
Description: as §5, with “The compounds according to the invention, which are formulated as wettable powders or as emulsion concentrates, are sprayed at an application rate of 600 to 800 l of water/ha (converted) in a dosage of 80 grams per hectare onto the surface of the green plant parts.” left out
as §2, §3

[19] = 320 g of a.i./ha, visual scoring 3-4 weeks after treatment

CCSc1c(Cl)ccc(C(=O)c2c(C3CC3)nn(C)c2O)c1C [drawing 18, reference compound]
Herbicidal activity in % against STEME [1]: 60% | Herbicidal activity in % against VERPE [2]: 30% | pest or weed control at 80 g/ha [3]: 30%

Cc1c(C(=O)c2c(C3CC3)nn(C)c2O)ccc(Cl)c1SCC1CC1 [drawing 43]
Herbicidal activity in % against AMARE ([4]; 80 g of a.i./ha): 80% | Herbicidal activity in % against STEME [1]: 90% | Herbicidal activity in % against VERPE [2]: 70%

Cn1nc(C2CC2)c(C(=O)c2ccc(Cl)c(S(C)(=O)=O)c2Cl)c1O [drawing 58, reference compound]
pest or weed control at 80 g/ha [5]: 0% | pest or weed control at 80 g/ha [6]: 80% | pest or weed control at 80 g/ha [7]: 60% | pest or weed control at 80 g/ha [8]: 70% | Herbicidal activity in % against GALAP [9]: 40%

COCCS(=O)(=O)c1c(S(C)(=O)=O)ccc(C(=O)c2c(C3CC3)nn(C)c2O)c1C [drawing 13]
Herbicidal activity in % against POLCO [10]: 60% | Herbicidal activity in % against PHBPU [11]: 60% | Herbicidal activity in % against XANST [12]: 70%

CSc1c(Cl)ccc(C(=O)c2c(C3CC3)nn(C)c2O)c1C [reference compound]
Herbicidal activity in % against AMARE ([4]; 80 g of a.i./ha): 70% | Herbicidal activity in % against STEME [1]: 80% | Herbicidal activity in % against VERPE [2]: 50%

CCSc1c(S(C)(=O)=O)ccc(C(=O)c2c(C3CC3)nn(C)c2O)c1Cl [drawing 24]
Herbicidal activity in % against AMARE [4, 19]: 90% | Herbicidal activity in % against VIOTR ([13]; 320 g of a.i./ha): 50% | Herbicidal activity in % against ABUTH [14]: 70% | Herbicidal activity in % against POLCO [10]: 0% | pest or weed control at 320 g/ha [3]: 0%

CCOCCSc1c(S(C)(=O)=O)ccc(C(=O)c2c(C3CC3)nn(C)c2O)c1C
Herbicidal activity in % against POLCO [15]: 70% | Herbicidal activity in % against PHBPU [16]: 60% | pest or weed control at 80 g/ha [17]: 80%

Cc1c(C(=O)c2c(C3CC3)nn(C)c2O)ccc(S(C)(=O)=O)c1[S+](C)[O-] (centres unmarked) [reference compound]
pest or weed control at 80 g/ha [7]: 80% | pest or weed control at 80 g/ha [17]: 60% | Damage to TRZAS [18]: 50

COCC[S+]([O-])c1c(S(C)(=O)=O)ccc(C(=O)c2c(C3CC3)nn(C)c2O)c1C (centres unmarked) [drawing 11]
Herbicidal activity in % against VIOTR ([13]; 80 g of a.i./ha): 70%

Cc1c(C(=O)c2c(C3CC3)nn(C)c2O)ccc(S(C)(=O)=O)c1S(=O)(=O)CC1CC1 [drawing 15]
Herbicidal activity in % against POLCO [10]: 50% | Herbicidal activity in % against PHBPU [11]: 50% | Herbicidal activity in % against XANST [12]: 60%

CSc1c(S(C)(=O)=O)ccc(C(=O)c2c(C3CC3)nn(C)c2O)c1Cl [drawing 26]
Herbicidal activity in % against AMARE [4, 19]: 90% | Herbicidal activity in % against VIOTR ([13]; 320 g of a.i./ha): 50% | Herbicidal activity in % against ABUTH [14]: 60% | Herbicidal activity in % against POLCO [10]: 40% | pest or weed control at 320 g/ha [3]: 0%

CC[S+]([O-])c1c(S(C)(=O)=O)ccc(C(=O)c2c(C3CC3)nn(C)c2O)c1C (centres unmarked)
Herbicidal activity in % against VIOTR ([13]; 80 g of a.i./ha): 60%

COCCSc1c(S(C)(=O)=O)ccc(C(=O)c2c(C3CC3)nn(C)c2O)c1Cl [drawing 23]
Herbicidal activity in % against AMARE [4, 19]: 100% | Herbicidal activity in % against VIOTR ([13]; 320 g of a.i./ha): 100% | Herbicidal activity in % against ABUTH [14]: 100% | Herbicidal activity in % against POLCO [10]: 50% | pest or weed control at 320 g/ha [3]: 60%

CCS(=O)(=O)c1c(S(C)(=O)=O)ccc(C(=O)c2c(C3CC3)nn(C)c2O)c1C [drawing 14, reference compound]
Herbicidal activity in % against POLCO [10]: 20% | Herbicidal activity in % against PHBPU [11]: 20% | Herbicidal activity in % against XANST [12]: 0%

CSc1c(S(C)(=O)=O)ccc(C(=O)c2c(C3CC3)nn(C)c2O)c1C [drawing 32, reference compound]
Herbicidal activity in % against POLCO [15]: 50% | Herbicidal activity in % against PHBPU [16]: 40%

COCC[S+]([O-])c1c(S(C)(=O)=O)ccc(C(=O)c2c(C3CC3)nn(C)c2O)c1C (centres unmarked) [drawing 33]
pest or weed control at 80 g/ha [7]: 100% | pest or weed control at 80 g/ha [17]: 70% | Damage to TRZAS [18]: 20

Cn1nc(C2CC2)c(C(=O)c2ccc(Cl)c(S(=O)(=O)CC3CC3)c2Cl)c1O [drawing 57]
pest or weed control at 80 g/ha [5]: 50% | pest or weed control at 80 g/ha [6]: 100% | pest or weed control at 80 g/ha [7]: 90% | pest or weed control at 80 g/ha [8]: 90% | Herbicidal activity in % against GALAP [9]: 70%

COCCSc1c(Cl)ccc(C(=O)c2c(C3CC3)nn(C)c2O)c1C [drawing 17]
Herbicidal activity in % against STEME [1]: 90% | Herbicidal activity in % against VERPE [2]: 90% | pest or weed control at 80 g/ha [3]: 60%
